Laboratory results from ChEMBL document CHEMBL1157397, “Cyclooxygenase (COX)-1 and -2 inhibitory labdane diterpenes from Crassocephalum mannii” (J Nat Prod, 2008).

target: T1, Prostaglandin G/H synthase 1 (Ovis aries) (UniProt P05979); assay: Inhibition of ovine COX1 at 100 uM
T1 sequence (whole entry): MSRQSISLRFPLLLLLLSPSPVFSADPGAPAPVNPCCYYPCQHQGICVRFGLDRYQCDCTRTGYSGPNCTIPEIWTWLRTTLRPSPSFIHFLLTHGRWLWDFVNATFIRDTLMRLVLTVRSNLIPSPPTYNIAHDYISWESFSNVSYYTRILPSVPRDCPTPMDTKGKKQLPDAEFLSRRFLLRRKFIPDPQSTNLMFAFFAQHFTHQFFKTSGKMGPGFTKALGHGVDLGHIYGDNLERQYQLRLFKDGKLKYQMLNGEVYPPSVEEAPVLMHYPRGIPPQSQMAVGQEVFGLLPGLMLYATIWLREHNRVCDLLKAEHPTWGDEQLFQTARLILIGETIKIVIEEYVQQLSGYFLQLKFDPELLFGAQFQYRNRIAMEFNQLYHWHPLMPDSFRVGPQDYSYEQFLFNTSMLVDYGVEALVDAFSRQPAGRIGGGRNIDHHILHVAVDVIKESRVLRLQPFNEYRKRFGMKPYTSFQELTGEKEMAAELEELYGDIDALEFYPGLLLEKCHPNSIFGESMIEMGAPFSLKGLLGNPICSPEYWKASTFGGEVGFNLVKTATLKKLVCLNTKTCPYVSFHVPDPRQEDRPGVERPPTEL

In order of rising inhibition:
1. CC(=O)OC[C@]1(C)CCC[C@]2(C)[C@@H](CC/C(C)=C/C(=O)O)[C@](C)(O)CC[C@@H]12  2%
2. CC(=O)OCC[C@@H]1[C@@]2(C)CCC[C@@](C)(COC(C)=O)[C@@H]2CC[C@@]1(C)O  18%
3. C/C(=C\C(=O)O)CC[C@@H]1[C@@]2(C)CCC[C@@](C)(CO)[C@@H]2CC[C@@]1(C)O  29%
4. C[C@@]1(CO)CCC[C@]2(C)[C@@H](CCO)[C@](C)(O)CC[C@@H]12  44%
